Here are results for 29 compounds from PubChem BioAssay (NCI).

What all share (test): NCI tumour cell line growth inhibition, 48 h
The test system of experiment [1] is NCI-H23 lung.
For experiment [2], the system named is SNB-75 CNS.
Experiment [3] has as its system HL-60(TB) leukemia.
Experiment [4] has as its system CAKI-1 renal.
Experiment [5] concerns OVCAR-4 ovarian.
For experiment [6], the system named is HOP-92 NSCLC.
Experiment [7] concerns NCI-H226 lung.
In experiment [8] the test system is SR leukemia.
Experiment [9] has as its system NCI-H460 lung.
In experiment [10] the test system is T-47D breast.

Values joined by “and” are separate entries in the source; they are usually repeats but may differ in a detail not shown here. Equal values may be shown once.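 Exposure lasted 48 hours, with cells grown in 96-well plates and compounds tested at five concentrations. GI50 marks 50% less growth. Definition used: TGI = concentration required for complete inhibition of growth.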 Some results are limits rather than exact numbers.

For the compound `CC(=O)Nc1ccc(C2=N/C(=C\c3ccc(Cl)cc3)C(=O)O2)cc1`, the TGI was above 100 µM in experiment [1]; above 100 µM in [2]; 85.8 µM in [3]; above 100 µM in [4]; above 100 µM in [5]; above 100 µM in [6]. In addition, the TGI in experiment [7] is above 100 µM; in [8] it was 61.2 µM; in [9], above 100 µM.

Regarding `CC1=C(C(=O)Nc2ccc(C)cc2)C(c2cccc([N+](=O)[O-])c2)C(C(=O)Nc2ccc(C)cc2)=C(C)N1`, the TGI was 70.4 µM in experiment [1]; 81.4 µM in experiment [2]; 39.4 µM in [3]; above 100 µM in experiment [4]; above 100 µM in [5]; above 100 µM in [7]. In addition, the TGI in experiment [8] came to 65.6 µM; in experiment [9], 60.8 µM.

`CCc1ncc(CO)n1Cc1cccc2ccccc12`: the TGI in experiment [1], in [2], in [4], in experiment [10], in experiment [5] and in [6] was above 100 µM in each case. The TGI in experiment [7] and in experiment [9] was above 100 µM throughout.

Take `N#Cc1cccc(C2C(=O)c3ccc(C(=O)c4ccc5c(c4)C(=O)N(c4ccc(Oc6ccc(N7C(=O)c8ccc(C(=O)c9ccc%10c(c9)C(=O)N(c9cccc(C#N)c9)C%10=O)cc8C7=O)cc6)cc4)C5=O)cc3C2=O)c1` (stereo not drawn): the TGI in experiment [1], in [2], in experiment [3], in experiment [5], in experiment [6] and in [9] was above 100 µM throughout.

As to `CCN(CC)CC(O)c1cc(-c2ccc(Cl)cc2)nc2c(C)c(Cl)ccc12` (stereo not drawn), the GI50 in experiment [1] was 1.78 µM; in [2], 1.37 µM; in experiment [3], 2.1 µM; in [4], 1.29 µM; in experiment [10], 1.59 µM; in [5], 1.9 µM. Also, the GI50 in experiment [7] was 1.65 µM. In addition, the TGI in [1] was found to be 3.3 µM; in [2] it was 2.65 µM; in [3], 4.57 µM; in experiment [4] it was 2.69 µM; in [10], 3.12 µM; in [5], 3.35 µM. This compound also gave a TGI in experiment [7] of 3.18 µM.

With `Cc1ccccc1-n1c(CCl)nc2ccc(Br)cc2c1=O`, the TGI in experiment [1] worked out at 25.3 µM; in [2], 29 µM; in experiment [3], 17 µM; in [4], 3.75 µM; in experiment [5] it was 31.8 µM; in experiment [6] it was 36 µM. In addition, the results for the TGI in [7], in experiment [8] and in [9] were 28.4 µM, above 24.9 µM and 28 µM, respectively.

Regarding `Clc1ccccc1C1SCc2nc3ccccc3n21` (stereo not drawn), the TGI in experiment [1] is above 100 µM; in experiment [2], 11.3 µM; in experiment [3], 42.3 µM; in experiment [4], above 100 µM; in experiment [5], above 100 µM; in [6], 31.3 µM. The TGI in [7] was 70.6 µM; in [8], 59.6 µM; in experiment [9] it was above 100 µM.

In the case of `Fc1ccc(N=C2C=CC(=Nc3ccc(F)cc3)c3ccccc32)cc1`, the TGI in [1], in experiment [2], in [3], in experiment [6], in experiment [7] and in [8] was above 100 µM throughout. This compound returned a TGI in experiment [9] above 100 µM.

As to `COC(=O)C1=CC(=O)[C@@H]2CCCC[C@H]12`, the TGI in experiment [2], in experiment [3], in experiment [4], in experiment [5], in experiment [7] and in experiment [8] was above 100 µM throughout. The TGI in experiment [9] was above 100 µM.

In the case of `O=C(Cc1nc2ccccc2o1)C(=O)Nc1ccc(Cl)cc1Cl`, the TGI in experiment [1], in experiment [2], in experiment [4], in experiment [5], in experiment [6] and in experiment [7] was above 100 µM throughout. The TGI is 51.6 µM in experiment [8] and above 100 µM in [9].

`Cc1cc(Cl)cc2c1NC(=O)C2(O)C(C(=O)c1ccccc1)c1ccccc1` (stereo not drawn): the TGI in experiment [1] was above 100 µM; in experiment [2] it was 83.2 µM and 60.7 µM; in [3], 52.1 µM; in experiment [4], above 100 µM; in [5], > 100 µM and 40 µM; in [6], 78.7 µM and > 100 µM. The TGI in experiment [7] is > 100 µM and 58.3 µM; in [9], above 100 µM. Also, the GI50 was 35.7 µM and > 100 µM in experiment [4]; 17.2 µM and 43.3 µM in experiment [6]; > 100 µM and 36.9 µM in experiment [9].

In the case of `COC(=O)c1c2c(c(C)[n+]([O-])c1C)C(=O)C(NCc1ccc(O)cc1)=CC2=O`, the GI50 in experiment [1] was 1.43 µM; in experiment [2], 1.67 µM; in [3], 2.46 µM; in experiment [4] it was 1.69 µM; in experiment [5], 1.03 µM; in [6], 2.52 µM. Besides, the figures for the GI50 in experiment [7], in [8] and in [9] were 2.06 µM, 1.83 µM and 1.58 µM, respectively. Further, the TGI came out at 3.5 µM in [1]; 3.06 µM in experiment [2]; 5.69 µM in [3]; 4.26 µM in experiment [4]; 2.23 µM in experiment [5]; 5.12 µM in experiment [6]. The values for the TGI in [7], in experiment [8] and in experiment [9] were 4.36 µM, 6.51 µM and 3.35 µM, respectively.

On to `CCc1ccccc1NC(=O)C(=O)C1C(=O)N(c2ccccc2)N=C1N` (stereo not drawn), for which the TGI in experiment [1], in [2], in [3], in experiment [4], in experiment [5] and in experiment [6] was above 100 µM each time. For the same compound, the TGI in [7] and in experiment [9] was above 100 µM in each case.

`[CH3][Hg]/[N]=C(/N)NC#N`: the GI50 in experiment [1] was 10.2 µM; in experiment [2] it was 12.1 µM; in [3] it was 2.76 µM; in experiment [4] it was 12.9 µM; in [5] it was 3.23 µM; in experiment [6] it was 1.78 µM. The results for the GI50 in [7], in experiment [8] and in experiment [9] were 15.6 µM, 4.39 µM and 25 µM, respectively. Moreover, the TGI in [1] is 24.5 µM; in [2], 24.4 µM; in experiment [3], above 100 µM; in experiment [4], 25.7 µM; in [5] it was 9.31 µM; in experiment [6] it was 3.84 µM. In addition, the TGI in experiment [7] was 32.5 µM; in experiment [8], 39.9 µM; in experiment [9] it was 88.7 µM.

With `Cc1ccc(NC(=O)CC2SC(=Nc3ccc(Cl)cc3)NC2=O)cc1C` (stereo not drawn), the TGI came to 35.6 µM in experiment [1]; 33.2 µM in [2]; 9.12 µM in experiment [3]; 35.9 µM in experiment [4]; 35.6 µM in experiment [5]; 27.5 µM in experiment [6]. The results for the TGI in [7], in experiment [8] and in experiment [9] were above 64.3 µM, 29.4 µM and 18.2 µM, respectively.

Turning to `CN1C2(c3ccccc3)C(C(=O)c3ccccc3)=C(C(=O)c3ccccc3)C1(c1ccccc1)c1c(-c3ccccc3)sc(-c3ccccc3)c12`, the TGI in experiment [1], in experiment [2], in experiment [3], in experiment [4], in experiment [5] and in experiment [6] was above 100 µM each time. The TGI in experiment [7], in experiment [8] and in experiment [9] was above 100 µM each time.

As for `Cc1cc(C)c(/C=N/NS(=O)(=O)c2ccccc2)c(C)c1`, the TGI in [1] is above 100 µM; in experiment [2] it was above 100 µM; in experiment [3], above 100 µM; in [4] it was above 100 µM; in experiment [5] it was above 100 µM; in experiment [6], 95.9 µM. Also, the TGI in experiment [7], in experiment [8] and in experiment [9] was above 100 µM throughout.

Consider `CC1=CC[C@@H](C(C)(C)O)C[C@@H]1O`, for which the TGI in experiment [1], in experiment [2], in experiment [3], in experiment [5], in [6] and in experiment [7] was above 5000 µM in each case. For the same compound, the TGI in [8] and in [9] was above 5000 µM each time.

With `CC(=O)O[C@@H]1CC[C@@]2(C)C(=O)C34C[C@@]5(C)C([C@@H](C)CCCC(C)C)CCC5(C)[C@](O)(O3)C(=O)[C@H]4C2C1(C)C` (stereo partly drawn), the TGI in experiment [1] is 27.4 µM; in experiment [2] it was 29.6 µM; in experiment [3], 25.3 µM; in experiment [4], 29.8 µM; in [5] it was 26.2 µM; in [6] it was 34.5 µM. The TGI in experiment [7] came out at 29.6 µM; in [8] it was 35.2 µM; in experiment [9], 18.5 µM.

As for `N#CCCN(c1ccc(C=O)cc1)S(=O)(=O)c1ccccc1`, the TGI in experiment [2], in experiment [3], in experiment [4], in [5], in [7] and in experiment [8] was above 100 µM throughout. The compound also returned a TGI in experiment [9] above 100 µM.

For `COc1ccc2nc3ccccc3c(NCCN(CCCl)CCCl)c2c1`, the TGI in experiment [2] is 5.72 µM; in experiment [3], 1.1 µM; in [4], 0.937 µM; in [5], 3.14 µM; in [6], 2.43 µM; in experiment [7], 4.74 µM. Besides, in [8], the TGI was found to be 0.379 µM.

Turning to `O=C(O)CCC1c2[nH]c3ccccc3c2CCN1Cc1ccccc1` (stereo not drawn), the TGI in experiment [1], in experiment [2], in [3], in experiment [4], in experiment [5] and in [6] was above 100 µM in each case. In addition, the TGI in experiment [7], in [8] and in [9] was above 100 µM each time.

For `CCOC(=O)C(=O)C(C#N)c1ccc(Cl)cc1` (stereo not drawn), the TGI in experiment [1], in experiment [2], in experiment [3], in experiment [4], in [5] and in experiment [6] was above 100 µM in each case. Also, the TGI in [7] and in experiment [9] was above 100 µM each time.

Take `COc1cc(CC(=O)O)c([N+](=O)[O-])cc1OC`: the TGI in experiment [1], in experiment [2], in experiment [3], in experiment [4], in experiment [5] and in [6] was above 100 µM in each case. The TGI in experiment [7] and in [9] was above 100 µM in each case.

On to `O=C(CC(=O)c1cccc([N+](=O)[O-])c1)C(=O)Nc1ccccc1`, for which the TGI in [1], in [2], in experiment [3], in [4], in experiment [5] and in [6] was above 100 µM in each case. Also, the TGI in [7] and in [9] was above 100 µM in each case.

`COc1ccc([C@@H]2OC(=O)C3C2C(=O)O[C@H]3c2ccc(OC)cc2)cc1` (stereo partly drawn): the TGI in experiment [1], in [2], in experiment [3], in experiment [4], in experiment [5] and in experiment [8] was above 100 µM throughout. Moreover, the TGI in [9] was above 100 µM.

As to `COC(=O)C(C(=O)C(=O)Nc1ccccc1C)c1nc2ccc([N+](=O)[O-])cc2[nH]c1=O` (stereo not drawn), the TGI in experiment [1], in [2], in [3], in experiment [4], in experiment [5] and in experiment [7] was above 100 µM throughout. The TGI in experiment [8] and in experiment [9] was above 100 µM throughout.

As to `O=C(CC1(O)C(=O)Nc2ccccc21)c1ccccc1O` (stereo not drawn), the TGI in [1], in [2], in experiment [3], in [4], in experiment [5] and in experiment [6] was above 100 µM in each case. Moreover, the TGI in experiment [7] and in experiment [9] was above 100 µM in each case.

Turning to `CN(C)c1ccc(/C=c2/c3cc(O)ccc3n3c2cc(-c2ccccc2)[n+]3C)cc1`, the TGI in experiment [1] was 4.64 µM; in experiment [2] it was 1.95 µM; in experiment [3], 1.05 µM; in experiment [4], above 100 µM; in experiment [5], above 100 µM; in [6], 3.9 µM. Besides, the TGI is above 100 µM in experiment [7] and 4.41 µM in experiment [8]. Further, in [5], the GI50 was 2.83 µM.
